EC50 data for 21 compounds are collected here from US20130261108A1, “COMPOSITIONS AND METHODS FOR MODULATING FARNESOID X RECEPTORS” (IRM LLC, priority 2010, published 2013).

The target of the experiment is T1, human Farnesoid X Receptor (FXR) ligand binding domain (Homo sapiens, UniProt Q96RI1).
T1 construct: purchased Invitrogen
T1 sequence (Q96RI1 193-472 isoform Q96RI1-2): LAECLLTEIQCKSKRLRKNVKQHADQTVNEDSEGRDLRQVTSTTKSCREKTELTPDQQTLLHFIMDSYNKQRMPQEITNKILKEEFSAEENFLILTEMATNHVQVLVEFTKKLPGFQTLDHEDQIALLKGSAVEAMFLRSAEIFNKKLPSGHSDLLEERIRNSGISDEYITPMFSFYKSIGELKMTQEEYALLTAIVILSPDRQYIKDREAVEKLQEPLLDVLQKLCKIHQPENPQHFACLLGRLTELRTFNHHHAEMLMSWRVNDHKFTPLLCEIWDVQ
Nature of the experiment: Human GST-FXR LBD co-activator interaction assay (FXR HTRF assay). In kind it is biochemical. Conditions: GST-FXR LBD with biotin-labeled SRC-1 peptide, FRET/HTRF, 2.5 hours at room temperature; response relative to GW4064; read-out: FXR coactivator interaction assay (HTRF) (EC50). The source says:
Human GST-FXR LBD Co-Activator Interaction Assay.
The FXR HTRF assay is a biochemical assay measuring the interaction between FXR and a coactivator protein (SRC1). The ligand-induced interaction with a coactivator protein is a critical step in transcriptional activation by FXR. Thus, this is an assay designed to measure FXR agonist activity of compounds.
The ligand-dependent interaction between GST-FXR LBD and a peptide derived from Steroid Receptor Coactivator-1 (SRC-1) was monitored by Fluorescence Resonance Energy Transfer (FRET). […] Test compounds (in DMSO solution) and detection reagents (anti-GST-Cryptate labeled antibody and Streptavidin-XL665 conjugate; CisBio) were added in assay buffer containing 50 mM KF. Plates are incubated at room temperature in the dark for 2.5 hours before reading on an Envision (PerkinElmer) at 665 nm and 590 nm.
A negative control (without Streptavidin-XL665) was run with each assay and represented the background fluorescence. A reference FXR agonist, GW4064, was included in each experiment as positive control. The efficacy of each test compound was compared to that of GW4064. At each concentration, the relative activity of the test compound was expressed as Response %=(Rsample−RDMSO)/(Rpositive−RDMSO), where Rsample is the HTRF response (expressed in Delta F %) for the test compound, Rpositive is the maximal response for GW4064 at saturating concentrations, and RDMSO is the response for DMSO control. The EC50 values were calculated using GraphPad Prism (GraphPad Software) using non-linear regression curve fit (log(agonist) vs. response−variable slope (four parameters)).
A general note: In TR-FRET formats the signal depends on donor and acceptor labels being close together.

`O=C(O)c1ccc2nc(N3CCC(OCc4c(-c5c(F)cccc5F)noc4C4CC4)CC3)sc2c1` [Example 2-14, 2-(4-{[5-cyclopropyl-3-(2,6-difluorophenyl)-1,2-oxazol-4-yl]methoxy}piperidin-1-yl)-1,3-benzothiazole-6-carboxylic acid]: the half-maximal effective concentration (EC50) stood at 31 nM.

`O=C(O)c1ccc2nc(N3CCC(OCc4c(C5CCCCC5)noc4C4CC4)CC3)sc2c1` [Example 2-15, 2-{4-[(3-cyclohexyl-5-cyclopropyl-1,2-oxazol-4-yl)methoxy]piperidin-1-yl}-1,3-benzothiazole-6-carboxylic acid]: the 50% effective concentration (EC50) is 246 nM.

As for `O=C(O)c1ccc2nc(N3CCC(OCc4c(C5CCCC5)noc4C4CC4)CC3)sc2c1` [Example 2-16, 2-{4-[(3-cyclopentyl-5-cyclopropyl-1,2-oxazol-4-yl)methoxy]piperidin-1-yl}-1,3-benzothiazole-6-carboxylic acid], the EC50 stood at 263 nM.

In the case of `O=C(O)c1ccc2nc(N3CCC(OCc4c(C5CC6CCC5C6)noc4C4CC4)CC3)sc2c1` (stereo not drawn) [Example 2-17, 2-{4-[(3-{bicyclo[2.2.1]heptan-2-yl}-5-cyclopropyl-1,2-oxazol-4-yl)methoxy]piperidin-1-yl}-1,3-benzothiazole-6-carboxylic acid], the EC50 came out at 423 nM.

Regarding `CCOC(=O)c1ccc2nc(N3CCCC(OCc4c(-c5ccccc5OC(F)(F)F)noc4C4CC4)CC3)sc2c1` (stereo not drawn) [Example 3-1A, ethyl 2-[4-({5-cyclopropyl-3-[2-(trifluoromethoxy)phenyl]-1,2-oxazol-4-yl}methoxy)azepan-1-yl]-1,3-benzothiazole-6-carboxylate], the EC50 came out at 248 nM.

`O=C(O)c1ccc2nc(N3CCCC(OCc4c(-c5ccccc5OC(F)(F)F)noc4C4CC4)CC3)sc2c1` (stereo not drawn) [Example 3-1B, 2-[4-({5-cyclopropyl-3-[2-(trifluoromethoxy)phenyl]-1,2-oxazol-4-yl}methoxy)azepan-1-yl]-1,3-benzothiazole-6-carboxylic acid]: the EC50 amounted to 7 nM.

Turning to `CCOC(=O)c1ccc2nc(N3CCCC(OCc4c(-c5ccccc5C(F)(F)F)noc4C4CC4)CC3)sc2c1` (stereo not drawn) [Example 3-2A, ethyl 2-[4-({5-cyclopropyl-3-[2-(trifluoromethyl)phenyl]-1,2-oxazol-4-yl}methoxy)azepan-1-yl]-1,3-benzothiazole-6-carboxylate], the EC50 is 416 nM.

For `O=C(O)c1ccc2nc(N3CCCC(OCc4c(-c5ccccc5C(F)(F)F)noc4C4CC4)CC3)sc2c1` (stereo not drawn) [Example 3-2B, 2-[4-({5-cyclopropyl-3-[2-(trifluoromethyl)phenyl]-1,2-oxazol-4-yl}methoxy)azepan-1-yl]-1,3-benzothiazole-6-carboxylic acid], the EC50 was found to be 8 nM.

Consider `CCOC(=O)c1ccc2nc(N3CCC(OCc4c(-c5c(Cl)cccc5Cl)noc4C(C)C)CC3)sc2c1` [Example 4A, Ethyl 2-(4-((3-(2,6-dichlorophenyl)-5-isopropylisoxazol-4-yl)methoxy)piperidin-1-yl)benzo[d]thiazole-6-carboxylate], for which the EC50 came out at 960 nM.

For `CC(C)c1onc(-c2c(Cl)cccc2Cl)c1COC1CCN(c2nc3ccc(C(=O)O)cc3s2)CC1` [Example 4B, 2-(4-((3-(2,6-Dichlorophenyl)-5-isopropylisoxazol-4-yl)methoxy)piperidin-1-yl)benzo[d]thiazole-6-carboxylic acid], the concentration for a half-maximal effect (EC50) was 7 nM.

For `O=C(O)c1ccc2nc(N3CCC(OCc4c(C5CCCCC5C(F)(F)F)noc4C4CC4)CC3)sc2c1` (stereo not drawn) [Example 5, 2-[4-({5-cyclopropyl-3-[2-(trifluoromethyl)cyclohexyl]-1,2-oxazol-4-yl}methoxy)piperidin-1-yl]-1,3-benzothiazole-6-carboxylic acid], the concentration for a half-maximal effect (EC50) worked out at 44 nM.

Turning to `N#Cc1ccc2nc(N3CCC(OCc4c(-c5c(Cl)cccc5Cl)noc4C4CC4)CC3)sc2c1` [Example 6-1, 2-(4-((5-cyclopropyl-3-(2,6-dichlorophenyl)isoxazol-4-yl)methoxy)piperidin-1-yl)benzo[d]thiazole-6-carbonitrile], the EC50 came to 132 nM.

On to `NC(=O)c1ccc2nc(N3CCC(OCc4c(-c5c(Cl)cccc5Cl)noc4C4CC4)CC3)sc2c1` [Example 6-2, 2-(4-((5-cyclopropyl-3-(2,6-dichlorophenyl)isoxazol-4-yl)methoxy)piperidin-1-yl)benzo[d]thiazole-6-carboxamide], for which the concentration for a half-maximal effect (EC50) amounted to 19 nM.

Turning to `Clc1cccc(Cl)c1-c1noc(C2CC2)c1COC1CCN(c2nc3ccc(-c4nn[nH]n4)cc3s2)CC1` [Example 6-3, 4-(((1-(6-(2H-tetrazol-5-yl)benzo[d]thiazol-2-yl)piperidin-4-yl)oxy)methyl)-5-cyclopropyl-3-(2,6-dichlorophenyl)isoxazole], the EC50 worked out at 15 nM.

Consider `N#Cc1ccc2nc(N3CCC(OCc4c(-c5ccccc5OC(F)(F)F)noc4C4CC4)CC3)sc2c1` [Example 7-1, 2-[4-({5-cyclopropyl-3-[2-(trifluoromethoxy)phenyl]-1,2-oxazol-4-yl}methoxy)piperidin-1-yl]-1,3-benzothiazole-6-carbonitrile], for which the concentration giving a half-maximal response (EC50) amounted to 2200 nM.

As to `NC(=O)c1ccc2nc(N3CCC(OCc4c(-c5ccccc5OC(F)(F)F)noc4C4CC4)CC3)sc2c1` [Example 7-2, 2-[4-({5-cyclopropyl-3-[2-(trifluoromethoxy)phenyl]-1,2-oxazol-4-yl}methoxy)piperidin-1-yl]-1,3-benzothiazole-6-carboxamide], the EC50 turned out to be 164 nM.

In the case of `FC(F)(F)Oc1ccccc1-c1noc(C2CC2)c1COC1CCN(c2nc3ccc(-c4nn[nH]n4)cc3s2)CC1` [Example 7-3, 2-[4-({5-cyclopropyl-3-[2-(trifluoromethoxy)phenyl]-1,2-oxazol-4-yl}methoxy)piperidin-1-yl]-6-(2H-1,2,3,4-tetrazol-5-yl)-1,3-benzothiazole], the EC50 was 433 nM.

Regarding `NC(=O)c1cc(F)c2nc(N3CCC(OCc4c(-c5ccccc5OC(F)(F)F)noc4C4CC4)CC3)sc2c1` [Example 7-4, 2-[4-({5-cyclopropyl-3-[2-(trifluoromethoxy)phenyl]-1,2-oxazol-4-yl}methoxy)piperidin-1-yl]-4-fluoro-1,3-benzothiazole-6-carboxamide], the EC50 was 272 nM.

In the case of `N#Cc1ccc2nc(N3CCC(OCc4c(-c5c(F)cccc5Cl)noc4C4CC4)CC3)sc2c1` [Example 7-5, 2-(4-{[3-(2-chloro-6-fluorophenyl)-5-cyclopropyl-1,2-oxazol-4-yl]methoxy}piperidin-1-yl)-1,3-benzothiazole-6-carbonitrile], the EC50 turned out to be 836 nM.

For `Fc1cccc(Cl)c1-c1noc(C2CC2)c1COC1CCN(c2nc3ccc(-c4nn[nH]n4)cc3s2)CC1` [Example 7-6, 2-(4-{[3-(2-chloro-6-fluorophenyl)-5-cyclopropyl-1,2-oxazol-4-yl]methoxy}piperidin-1-yl)-6-(2H-1,2,3,4-tetrazol-5-yl)-1,3-benzothiazole], the concentration giving a half-maximal response (EC50) is 154 nM.

Regarding `COC(=O)CNC(=O)c1ccc2nc(N3CCC(OCc4c(-c5ccccc5OC(F)(F)F)noc4C4CC4)CC3)sc2c1` [Example 8-1A, Methyl 2-(2-(4-((5-cyclopropyl-3-(2-(trifluoromethoxy)phenyl)isoxazol-4-yl)methoxy)piperidin-1-yl)benzo[d]thiazole-6-carboxamido)acetate], the half-maximal effective concentration (EC50) came out at 456 nM.

The term EC50 denotes the concentration giving half of the maximal effect.
